Reference: patent US11071727B2, “Therapeutic targeting of proteolytic cleavage of the mixed lineage leukemia gene product (MLL1) by taspase1 using kinase inhibitors” (Northwestern University, priority 2018, dated 2021)

Tests used:
[1] = tested on: MLL leukemia and non-MLL leukemia cells; test: Leukemia cell proliferation by cell counting; assay type: cell-based, human; conditions: panel of MLL and non-MLL leukemia cell lines, increasing concentrations, 3 days
Protocol: (§1) FIG. 6. CKII inhibition increases genome-wide MLL occupancy and excludes SEC recruitment in MLL leukemia cells. (A) and (B) MLL1C occupancy in CX-4945 or TTP22 treated cells were shown relative to DMSO control. […] (C) Track examples of the MLL1 occupancy at the promoter regions of ELF2 and C6orf211. (D) CX-4945 inhibition of leukemia cell proliferation. Multiple MLL leukemia (orange lines) and non-MLL leukemia (blue lines) were cultured with different doses of CX-4945 for 3 days. Cell number was determined by cell counter and normalized to DMSO control. (E) SEM cells were treated with 0, 5 or 10 μM of CX-4945 for 30 hours and western blot was performed to determine the MLL1 full-length protein levels and MLL-AF4 fusion protein levels. (F) MLL-AFF1, AFF4 and ELL2 occupancies were decreased by CX-4945 treatment in SEM cells.
Cell culture. All of the cell lines were purchased from the American Type Culture Collection (Rockville, Md.). 293T, MCF7 and HCT116 cell lines were maintained in Dulbecco's modified Eagle's medium (DMEM) (Gibco, Gaithersburg, Md.) supplemented with 10% fetal bovine serum (FBS) (Gibco) at 37° with 5% CO2. SEM was maintained in IMDM with 10% FBS. […]
Cell Proliferation Assay. Cell proliferation was measured by cell counting using the Vi-CELL™ Cell Counter (Beckman Coulter Life Sciences, Indianapolis, Ind.). […]

[2] = tested on: MLL-AFF1, AFF4 and ELL2 occupancy; test: ChIP-seq of MLL-AFF1, AFF4 and ELL2 occupancy in SEM cells; assay type: cell-based, human
Protocol: as §1
ChIP-seq Analysis. 5×10^7 cells were used for each ChIP assay, as performed as previously described (Chen et al. 2015). Peaks were called with MACS v1.4.2 (Zhang et al. 2008) using default parameters and were annotated by the HOMER software (Heinz et al. 2010). Metaplots were generated using ngsplot (Shen et al. 2014). […] Differential occupancy of MLL1 was evaluated by edgeR, and peaks with Benjamini-Hochburg adjusted p-values less than 0.05 were considered to be differentially occupied. […]

[3] = tested on: MLL-AF9 leukemia; test: MLL-AF9 syngeneic leukemia mouse model; assay type: in vivo
Protocol: FIG. 7. CKII inhibition delays the leukemia progression and improves survival of MLL-AF9 mice and MOLM13 human leukemia mice. (A) Timeline of the MLL-AF9 leukemia mouse model and CKII inhibitor treatment. Drug treatments were started at day 10 after transplantation. (B) Kaplan-Meier survival curves of secondary transplanted C57BL/6 mice after vehicle and CX-4945 treatment at day 10. Vehicle or CX-4945 (50 mg/kg or 75 mg/kg) were administered twice daily by oral gavage for a total of twenty treatments. Leukemia was confirmed at the endpoint for each transplant mouse. The number (n) indicates the number of mice in each group. The p values were calculated using the log rank test. (C) Timeline of the MOLM13 human leukemia xenograft mice. Drug treatments were started at day 5 after transplantation. (D) Kaplan-Meier survival curves of NSGS mice after vehicle and CX-4945 treatment. Vehicle or CX-4945 (50 mg/kg) were administered twice daily by oral gavage for a total of twenty treatments. Leukemia was confirmed at the endpoint for each transplant mouse by flow cytometry, H&E staining and histology analysis. The number (n) indicates the number of mice in each group. The p value was calculated using the log rank test. (E) Taspase1 cleavage regulation of MLL1 mediated by CKII phosphorylation. MLL1 cleavage by taspase1 primed the protein to degradation pathway. […]

## O=C(O)c1ccc2c(c1)nc(Nc1cccc(Cl)c1)c1ccncc12 [CX-4945, 5-(3-chlorophenylamino)benzo[c][2,6]naphthyridine-8-carboxylic acid]
[1]
  sensitivity of leukemic cell lines (cell number normalized to DMSO): MLL leukemia cells were generally more sensitive than non-MLL leukemic cells
[2]
  genome-wide binding of MLL-AFF1, AFF4 and ELL2: decrease
[3]; C57BL/6 mice, 50 mg/kg or 75 mg/kg twice daily by oral gavage, twenty treatments from day 10
  leukemia progression and survival: significantly delayed the leukemia progression and improved the survival
[3]; MLL-AF9 syngeneic mouse model, compared with vehicle control group
  weight of the mice: did not affect the weight of the mice
